Test results as given in paper PMC10733463, “Berberine-microbiota interplay: orchestrating gut health through modulation of the gut microbiota and metabolic transformation into bioactive metabolites” (Frontiers in Pharmacology, 2023).

How the values were obtained:
[1] = UPLC-MS/MS quantification of berberine and metabolites in plasma; format: in vivo, Ross 308 broiler chickens; details: chickens fed 0.1, 0.5 or 1 g berberine/kg feed for 21 days; LOQ 0.1 ng/mL
From the text: (§1) The study was undertaken following the guidelines of the ethics committee of the Faculty of Veterinary Medicine and Bioscience Engineering, Ghent University, in accordance with the EU Directive 2010/63/EU. One-day-old Ross 308 male broilers were obtained from a local hatchery and housed in pens on wood shavings. They were allotted into 4 groups, with three replicate pens per group each housing 8 chickens. The animals were not vaccinated. Water and commercial starter feed (day 1–12, FARM 1 Mash, Country’s Best, Versele Laga, Deinze, Belgium) or grower (day 13–21, FARM 2 mash, Country’s Best, Versele Laga, Deinze, Belgium) were provided ad libitum. The control group received the standard non-supplemented diets, whereas the chickens in other groups were fed the same feed supplemented with 0.1, 0.5 or 1 g berberine/kg feed throughout the whole trial period. At day 21, 4 birds per pen were weighted then euthanized by sodium pentobarbital injection for sampling. Individual jejunal, ileal, caecal and colonic contents were stored at −20°C for microbiota composition analysis (16S rRNA gene sequencing). Additionally, ileal and caecal content samples were collected and stored at −20°C for berberine and berberine-derived metabolite quantification. Duodenal tissue samples were collected and fixed in 4% phosphate buffered formaldehyde for histological analysis. Blood samples were collected in heparin tubes and centrifuged at 524 g for 10 min to recover the plasma fraction, which was further mixed with 17 mg/mL L-ascorbic acid for dihydroberberine stabilization, and stored at −20°C for berberine and berberine-derived metabolite quantification.
(§2) The column temperature was maintained at 25°C. The autosampler temperature was set at 10°C.
A 137.5 µL plasma sample containing 17 mg/mL L-ascorbic acid was used for sample extraction. The ascorbic acid solution was added to prevent oxidation of dihydroberberine to berberine during sample storage ([Feng et al., 2015]). The plasma sample was transferred to an OstroTM 96 well-plate (25 mg) (Waters). Subsequently, 50 µL Milli-Q water and 25 µL of an internal standard solution containing 100 ng/mL of both berberine-d6 and tetrahydropalmatine were added. A 640 µL volume of 1% (v/v) formic acid solution in acetonitrile (1/3 ratio) was added, followed by gentle mixing. Vacuum was applied on the Ostro™ plate for 5 min and the eluate was collected in a 2 mL square 96-well collector plate. The sample was transferred in a glass tube and evaporated at 40°C under a gentle stream of nitrogen in a Pierce (Rockford, United States) Reacti-Therm III™ Heating Module and Reacti-Vap™ III Module. The dried sample extract was reconstituted in 500 µL Milli-Q water, followed by injection of a 5 µL sample aliquot onto the UPLC-MS/MS apparatus. Quantification was based on the ratio of the analyte peak area compared to the peak area of the internal standard berberine-d6.
Calibration standards and quality control samples were prepared as follows: 137.5 µL of blank plasma stabilized with 17 mg/mL L-ascorbic acid were supplemented with 25 µL mixed working solutions of berberine and metabolites (except dihydroberberine) at different levels, 25 µL of dihydroberberine working solution, stabilized with 17 mg/mL L-ascorbic acid, at different levels and 25 µL of an internal standard solution containing 100 ng/mL of both berberine-d6 and tetrahydropalmatine. The calibration curve was in the 0.1–100 ng/mL range, including 0.1, 0.5, 1, 2.5, 5, 10, 25, […], 50 and 100 ng/mL levels.
The UPLC-MS/MS analysis method for the quantification of berberine and berberine-derived metabolites both in plasma and ileal/caecal intestinal content was validated to the guidelines of the European Medicines Agency, i.e., of the Committee for Veterinary Medicinal Products (EMEA/CVMP/VICH/463202/2009) and of the Committee for Medicinal Products for Human Use (EMEA/CHMP/EWP/192217/20), and in accordance with the EU Directive 2002/657/EC. […]

[2] = test system: Caco-2 monolayers; parameters: method as in Zhang et al., 2019; details: in vitro, among berberine metabolites; ref Zhang et al., 2019; cited from earlier work
[3] = test system: B. coccoides (DSM 935); details: Blautia coccoides, 10 µg/mL, pH 6
[4] = rats, oral administration of berberine; cited from earlier work
[5] = UPLC-MS/MS quantification of berberine and metabolites in ileal and caecal content; format: in vivo, Ross 308 broiler chickens; details: 21 days
From the text: as §1, §2
250 mg of ileal or caecal content was weighed in a 15 mL polypropylene centrifuge tube and 250 µL of ascorbic acid 170 mg/mL solution was added for stabilization of dihydroberberine, followed by brief vortexing. Subsequently, 25 µL of an internal standard solution containing 250 μg/mL of berberine-d6 and 2.5 μg/mL tetrahydropalmatine were added, followed by brief vortexing. A 2.5 mL volume of extraction solvent was then added, consisting of a 1% (v/v) formic acid solution in methanol. The sample was put on a rotary shaker set at 80 rpm for 20 min, followed by centrifugation (3,720 g, 10 min, 4°C). The supernatant was then diluted, by a factor 5 for measurement of low abundance components, and by a factor 2,000 for measurement of high abundance components. The 1/5 diluted sample extract was prepared directly in an autosampler vial as follows: 200 µL sample extract were mixed with 100 µL ascorbic acid 170 mg/mL solution and 700 µL Milli-Q water. For the 1/2,000 diluted sample extract, an intermediate 1/100 sample dilution was prepared by combining 500 µL sample extract and 49.5 mL of Milli-Q water. 50 μL was then transferred in an autosampler vial followed by the addition of 950 µL of Milli-Q water. For both dilutions, a 5 µL sample aliquot was injected onto the UPLC-MS/MS apparatus. Quantification was based on the ratio of the analyte peak area compared to the peak area of the internal standard tetrahydropalmatine for 1/5 diluted sample extracts, and on the ratio of the analyte peak area compared to the peak area of the internal standard berberine-d6 for 1/2,000 diluted sample extracts.
Calibration standards and quality control samples were prepared as follows: 250 mg of blank ileal or caecal content were supplemented with 250 µL of ascorbic acid 170 mg/mL solution, 25 µL mixed solution of berberine and metabolites (with the exception of dihydroberberine) at different levels, 25 µL of dihydroberberine solution, stabilized with 17 mg/mL ascorbic acid, at different levels and 25 µL of an internal standard solution containing 0.625 μg/mL of berberine-d6 and 2.5 μg/mL tetrahydropalmatine. The calibration curve was in the 62.5–5,000 ng/g range, and included 62.5, 125, 250, 500, 1,000, 2,500, and 5,000 ng/g levels. […]

[6] = test system: Eubacterium limosum (LMG 28910); details: LMG 28910, chicken, 10 µg/mL, pH 6
Description: (§3) Six strains were tested for their ability to convert berberine into berberine-demethylated metabolites. […] Strains were sub-cultured overnight in M2GSC medium pH 6. The next day, caecal content from a 3-week-old broiler chicken was sampled in anaerobic conditions and 1:1,000 diluted in M2GSC medium pH 6 containing 10 μg/mL berberine. Caecal mixtures were enriched with 1:100 diluted overnight cultures of single bacteria, or with M2GSC (control), and incubated in a 24-well plate, for 48 h. […] Samples were collected and processed as described before. Each bacterial strain was tested in triplicate at 37°C–40°C under anaerobic conditions.
(§4) The UPLC instrument consisted of an Acquity H-Class Quaternary Solvent Manager and an Acquity FTN Sample Manager (Waters, Berchem, Belgium). For chromatographic separation, an Acquity UPLC® HSS T3 column (1.8 µm, 100 mm × 2.1 mm i.d.) was used, protected by a precolumn of the same type (VanGuardTM, 5 mm × 2.1 mm i.d.), both from Waters. […] The column temperature was maintained at 25°C. The autosampler temperature was set at 10°C. The UPLC effluent was sent from 1.2 min to 9.5 min by use of a divert valve to a Xevo TQ-S® triple quadrupole mass spectrometer from Water, equipped with an ESI ion source operating in the positive ionization mode from. The UPLC-MS/MS analysis was run under control of MassLynx software (v4.1), which was used for subsequent data processing as well. For the injection of 1/5 diluted intestinal content samples (see section Preparation of intestinal content samples (ileum and caecum)), the divert valve was used in addition from 7.1 min to 8.4 min to deviate the high amount of berberine and associated IS berberine-d6 eluting in that time window from the UPLC column directly to the waste, rather than to the MS detector to avoid oversaturation of the instrument, influencing subsequent sample extract injections at well. Operating conditions for the ESI source used in the positive ionization mode were optimized by direct infusion of all individual components in combination with the mobile phase at 50% A/50% B delivered at a flow rate of 0.3 mL/min. The following tune parameters were used for detection of all components: capillary voltage, 3 kV, cone voltage, 10 V, source offset, 50 V, source temperature, 150°C, desolvation temperature, 500°C, desolvation gas flow, 800 L/h, cone gas flow, 150 L/h, collision gas flow, 0.2 mL/min, ion energy 1 and 2, 0.5, LM 1 and LM 2 resolution, 3, HM 1 and HM 2 resolution, 15. Components were detected in MS/MS mode using component specific MRM (Multiple Reaction Monitoring) transitions (Supplementary Table S1). Since a commercial standard of thalifendine was not available, MS/MS detection parameters and calibration of berberrubine were used for the detection and quantification of thalifendine, which is a reasonable approach, since both compounds are isomers. No commercial reference standards were available for phase II metabolites, therefore “calculated” MRM transitions were defined as follows: [M + -Gluc] > M+ for glucuronide forms and [M + -SO3] > M+ for sulfate forms, where the loss of glucuronic acid or sulfate corresponded to a mass shift of 176 Da or 80 Da respectively. Phase II metabolites were quantified relatively using the berberine calibration curve ([Wang et al., 2017a]; [Kwon et al., 2020]).

[7] = test system: Blautia hansenii (DSM 20583); details: DSM 20583, chicken, 10 µg/mL, pH 6
Description: as §3, §4

[8] = test system: Anaerostipes butyraticus (35–7); details: 35-7, chicken, 10 µg/mL, pH 6
Description: as §3, §4

[9] = test system: B. coccoides (DSM 935); details: DSM 935, chicken, 10 µg/mL, pH 6
Description: as §3, §4

[10] = test system: Blautia hydrogenotrophica (DSM 10507); details: DSM 10507, chicken, 10 µg/mL, pH 6
Description: as §3, §4

[11] = test system: Blautia luti (DSM 14534); details: DSM 14534, chicken, 10 µg/mL, pH 6
Description: as §3, §4

Log2(fold change) of metabolite response at 48 h, B. coccoides pure culture over berberine-medium [3]	Ratio caecum / ileum (concentration) ([5]; 0.1 g berberine/kg feed)	Ratio caecum / ileum (concentration) ([5]; 0.5 g berberine/kg feed)	Ratio caecum / ileum (concentration) ([5]; 1 g berberine/kg feed)	Log2(fold change) of metabolite response at 48 h, culture with bacteria over control (berberine-medium + microbiota) [6]	Log2(fold change) of metabolite response at 48 h, culture with bacteria over control (berberine-medium + microbiota) [7]	Log2(fold change) of metabolite response at 48 h, culture with bacteria over control (berberine-medium + microbiota) [8]	Log2(fold change) of metabolite response at 48 h, culture with bacteria over control (berberine-medium + microbiota) [9]	Log2(fold change) of metabolite response at 48 h, culture with bacteria over control (berberine-medium + microbiota) [10]	Log2(fold change) of metabolite response at 48 h, culture with bacteria over control (berberine-medium + microbiota) [11]	Compound	Detection in plasma [1]	Permeability across Caco-2 monolayers [2]	Amount quantified in feces [4]
										COc1cc2c(cc1OS(=O)(=O)[O-])-c1cc3ccc(OC)c(OC)c3c[n+]1CC2 [columbamine-sulfate]	not detected		
1.71	15.66	30.48	32.10	0.21	-0.02	0.15	1.07	-3.33e-003	1.34	COc1ccc2cc3[n+](cc2c1OC)CCc1cc(O)c(O)cc1-3 [Demethyleneberberine]		most permeable	1.49%
9.30	6.68	29.03	21.17	1.37	0.34	0.21	4.46	0.26	-1.30	COc1c(O)ccc2cc3[n+](cc12)CCc1cc2c(cc1-3)OCO2 [Thalifendine]		most permeable	

Compound	Log2(fold change) of metabolite response at 48 h, B. coccoides pure culture over berberine-medium [3]	Ratio caecum / ileum (concentration) ([5]; 0.1 g berberine/kg feed)	Ratio caecum / ileum (concentration) ([5]; 0.5 g berberine/kg feed)	Ratio caecum / ileum (concentration) ([5]; 1 g berberine/kg feed)	Log2(fold change) of metabolite response at 48 h, culture with bacteria over control (berberine-medium + microbiota) [6]	Log2(fold change) of metabolite response at 48 h, culture with bacteria over control (berberine-medium + microbiota) [7]	Log2(fold change) of metabolite response at 48 h, culture with bacteria over control (berberine-medium + microbiota) [8]	Log2(fold change) of metabolite response at 48 h, culture with bacteria over control (berberine-medium + microbiota) [9]	Log2(fold change) of metabolite response at 48 h, culture with bacteria over control (berberine-medium + microbiota) [10]	Log2(fold change) of metabolite response at 48 h, culture with bacteria over control (berberine-medium + microbiota) [11]	Detection in plasma [1]	Permeability across Caco-2 monolayers [2]	Amount quantified in feces [4]
COc1cc2c(cc1O)-c1cc3ccc(OC)c(OC)c3c[n+]1CC2 [Columbamine, columbamine]		0.27	0.32	0.44							below LOQ		
